Legend:
[1] = organism: Homo sapiens; assay: Ratio of compound IC50 to (4aR,4bS,6aS,7S,9aS,9bS,11aR)-N,N-diethyl-1,4a,6a-trimethyl-2-oxohexadecahydro-1H-indeno[5,4-f]quinoline-7-carboxamide IC50 for human steroid 5alpha-reductase
[2] = organism: Homo sapiens; assay: Ratio of compound pIC50 to (4aR,4bS,6aS,7S,9aS,9bS,11aR)-N,N-diethyl-1,4a,6a-trimethyl-2-oxohexadecahydro-1H-indeno[5,4-f]quinoline-7-carboxamide pIC50 for human steroid 5alpha-reductase

| Ratio IC50 [1] | pIC50 [2] | SMILES |
| --- | --- | --- |
| 3.6 | 7.44 | CCN(CC)C(=O)[C@H]1CC[C@H]2[C@@H]3CC[C@H]4N(C)C(=O)[C@@H](C)C[C@]4(C)[C@H]3CC[C@]12C |
| 5.6 | 7.25 | CN1C(=O)CC[C@]2(C)[C@H]3CC[C@]4(C)[C@@H](C(=O)N5CCOCC5)CC[C@H]4[C@@H]3CC[C@@H]12 |
| 42 | 6.38 | COC(=O)[C@H]1CC[C@H]2[C@@H]3CC[C@H]4NC(=O)CC[C@]4(C)[C@H]3CC[C@]12C |
| 4 | 7.4 | CCCCCCCNC(=O)[C@H]1CC[C@H]2[C@@H]3CC[C@H]4N(C)C(=O)CC[C@]4(C)[C@H]3CC[C@]12C |
| 7 | 7.16 | CCN(CC)C(=O)[C@H]1CC[C@H]2[C@@H]3CC[C@H]4N(C)C(=O)C[C@H](C)[C@]4(C)[C@H]3CC[C@]12C |
| 27 | 6.57 | CC(=O)[C@H]1CC[C@H]2[C@@H]3CC[C@H]4N(C)C(=O)CC[C@]4(C)[C@H]3CC[C@]12C |
| 1.5 | 7.82 | CC(C)N(C(=O)[C@H]1CC[C@H]2[C@@H]3CC[C@H]4NC(=O)CC[C@]4(C)[C@H]3CC[C@]12C)C(C)C |
| 28 | 6.55 | CCN(CC)C(=O)[C@H]1CC[C@H]2[C@@H]3CC[C@H]4N(C)C(=O)C(OC)(OC)C[C@]4(C)[C@H]3CC[C@]12C |
| 735 | 5.13 | C[C@]12CCC(=O)N[C@@H]1CC[C@@H]1[C@@H]2CC[C@@]2(C)[C@H]1CC[C@@]21CCCO1 |
| 20 | 6.7 | COC(CNC(=O)[C@H]1CC[C@H]2[C@@H]3CC[C@H]4NC(=O)CC[C@]4(C)[C@H]3CC[C@]12C)OC |
| 4 | 7.4 | CCC(C)C(=O)[C@H]1CC[C@H]2[C@@H]3CC[C@H]4NC(=O)CC[C@]4(C)[C@H]3CC[C@]12C (stereo not given in full) |
| 8.6 | 7.07 | CC(C)(C)OC(=O)[C@H]1CC[C@H]2[C@@H]3CC[C@H]4NC(=O)CC[C@]4(C)[C@H]3CC[C@]12C |
| 390 | 5.41 | CCN(CC)C(=O)[C@@H](C)[C@H]1CC[C@H]2[C@@H]3CC[C@H]4N(C)C(=O)CC[C@]4(C)[C@H]3CC[C@]12C |
| 0.82 | 8.09 | CC(C)N(C(=O)[C@H]1CC[C@H]2[C@@H]3CC[C@H]4N(C)C(=O)CC[C@]4(C)[C@H]3CC[C@]12C)C(C)C |
| 143 | 5.84 | COC(=O)[C@H](C)[C@H]1CC[C@H]2[C@@H]3CC[C@H]4N(C)C(=O)CC[C@]4(C)[C@H]3CC[C@]12C |
| 2 | 7.7 | CCN(CC)C(=O)C[C@H]1CC[C@H]2[C@@H]3CC[C@H]4N(C)C(=O)CC[C@]4(C)[C@H]3CC[C@]12C |
| 1 | 8 | CCN(CC)C(=O)[C@H]1CC[C@H]2[C@@H]3CC[C@H]4N(C)C(=O)CC[C@]4(C)[C@H]3CC[C@]12C |
| 17 | 6.77 | COC(=O)[C@H]1CC[C@H]2[C@@H]3CC[C@H]4N(C)C(=O)CC[C@]4(C)[C@H]3CC[C@]12C |
| 47 | 6.33 | CN1C(=O)CC[C@]2(C)[C@H]3CC[C@]4(C)[C@@H](C(=O)SC(C)(C)C)CC[C@H]4[C@@H]3CC[C@@H]12 |
| 83 | 6.08 | CN1C(=O)CC[C@]2(C)[C@H]3CC[C@]4(C)[C@@H](C#N)CC[C@H]4[C@@H]3CC[C@@H]12 |
| 15 | 6.82 | CCN(CC)C(=O)[C@H]1CC[C@H]2[C@@H]3CC[C@H]4N(C)C(=O)[C@@H](OC)C[C@]4(C)[C@H]3CC[C@]12C |
| 4 | 7.4 | CC(C)NC(=O)[C@H]1CC[C@H]2[C@@H]3CC[C@H]4N(C)C(=O)CC[C@]4(C)[C@H]3CC[C@]12C |
| 1.1 | 7.96 | CN1C(=O)CC[C@]2(C)[C@H]3CC[C@]4(C)[C@@H](C(=O)NC(C)(C)C)CC[C@H]4[C@@H]3CC[C@@H]12 |
| 2 | 7.7 | CN1C(=O)CC[C@]2(C)[C@H]3CC[C@]4(C)[C@@H](C(=O)c5ccco5)CC[C@H]4[C@@H]3CC[C@@H]12 |
| 28 | 6.55 | CNC(=O)[C@H]1CC[C@H]2[C@@H]3CC[C@H]4N(C)C(=O)CC[C@]4(C)[C@H]3CC[C@]12C |
| 2 | 7.7 | CN1C(=O)CC[C@]2(C)[C@H]3CC[C@]4(C)[C@@H](C(=O)NC(C)(C)CO)CC[C@H]4[C@@H]3CC[C@@H]12 |
| 27 | 6.57 | CCN(CC)C(=O)CC[C@@H](C)[C@H]1CC[C@H]2[C@@H]3CC[C@H]4N(C)C(=O)CC[C@]4(C)[C@H]3CC[C@]12C |
| 9.4 | 7.03 | CCNC(=O)[C@H]1CC[C@H]2[C@@H]3CC[C@H]4N(C)C(=O)CC[C@]4(C)[C@H]3CC[C@]12C |

Further lines, the compound ahead of its results:

| SMILES | Ratio IC50 [1] | pIC50 [2] |
| --- | --- | --- |
| CCN(CC)C(=O)[C@H]1CC[C@H]2[C@@H]3CC[C@H]4N(C)C(=O)[C@@H]5C[C@@H]5[C@]4(C)[C@H]3CC[C@]12C | 1.3 | 7.89 |
| CCCCCCCNC(=O)[C@H]1CC[C@H]2[C@@H]3CC[C@H]4NC(=O)CC[C@]4(C)[C@H]3CC[C@]12C | 2.4 | 7.62 |
| CCN(CC)C(=O)/C=C1/CC[C@H]2[C@@H]3CC[C@H]4N(C)C(=O)CC[C@]4(C)[C@H]3CC[C@]12C | 1.5 | 7.82 |
| CCN(CCO)C(=O)[C@H]1CC[C@H]2[C@@H]3CC[C@H]4N(C)C(=O)CC[C@]4(C)[C@H]3CC[C@]12C | 3 | 7.52 |
| CCCCCNC(=O)[C@H]1CC[C@H]2[C@@H]3CC[C@H]4N(C)C(=O)CC[C@]4(C)[C@H]3CC[C@]12C | 2.4 | 7.62 |
| C[C@]12CCC(=O)N[C@@H]1CC[C@@H]1[C@@H]2CC[C@]2(C)[C@@H](C(N)=O)CC[C@@H]12 | 150 | 5.82 |
| CN1C(=O)CC[C@]2(C)[C@H]3CC[C@@]4(C)[C@@H](CC[C@@]45CCCO5)[C@@H]3CC[C@@H]12 | 144 | 5.84 |
| CCN(CC)C(=O)[C@H]1CC[C@H]2[C@@H]3CC[C@H]4NC(=O)CC[C@]4(C)[C@H]3CC[C@]12C | 1.2 | 7.92 |
| CN1C(=O)CC[C@]2(C)[C@H]3CC[C@]4(C)[C@@H](C(=O)NC(C)(C)CC(C)(C)C)CC[C@H]4[C@@H]3CC[C@@H]12 | 0.52 | 8.28 |
| CCN(CC)C(=O)CNC(=O)[C@H]1CC[C@H]2[C@@H]3CC[C@H]4N(C)C(=O)CC[C@]4(C)[C@H]3CC[C@]12C | 11 | 6.96 |
| CC(C)CC(=O)[C@H]1CC[C@H]2[C@@H]3CC[C@H]4N(C)C(=O)CC[C@]4(C)[C@H]3CC[C@]12C | 2.7 | 7.57 |
| CC(C)(C)NC(=O)[C@H]1CC[C@H]2[C@@H]3CC[C@H]4NC(=O)CC[C@]4(C)[C@H]3CC[C@]12C | 1.7 | 7.77 |
| CN1C(=O)CC[C@]2(C)[C@H]3CC[C@]4(C)[C@@H](C5=NCCO5)CC[C@H]4[C@@H]3CC[C@@H]12 | 11 | 6.96 |
| CCN(CC)C(=O)[C@H]1CC[C@H]2[C@@H]3CC[C@H]4N(C)C(=O)[C@@H](F)C[C@]4(C)[C@H]3CC[C@]12C | 5 | 7.3 |
| CC(C)CC(=O)[C@H]1CC[C@H]2[C@@H]3CC[C@H]4NC(=O)CC[C@]4(C)[C@H]3CC[C@]12C | 4.2 | 7.38 |
| CCOC(=O)C[C@H]1CC[C@H]2[C@@H]3CC[C@H]4N(C)C(=O)CC[C@]4(C)[C@H]3CC[C@]12C | 29 | 6.54 |
| CCN(CC)C(=O)[C@H]1CC[C@H]2[C@@H]3CC[C@H]4N(C)C(=O)[C@@H]5O[C@@H]5[C@]4(C)[C@H]3CC[C@]12C | 63 | 6.2 |
| CN1C(=O)CC[C@]2(C)[C@H]3CC[C@]4(C)[C@@H](C5=NC(C)(C)CO5)CC[C@H]4[C@@H]3CC[C@@H]12 | 125 | 5.9 |
| C[C@H](CO)[C@H]1CC[C@H]2[C@@H]3CC[C@H]4N(C)C(=O)CC[C@]4(C)[C@H]3CC[C@]12C | 15 | 6.82 |
| CC(C)(C)CC(C)(C)NC(=O)[C@H]1CC[C@H]2[C@@H]3CC[C@H]4NC(=O)CC[C@]4(C)[C@H]3CC[C@]12C | 0.56 | 8.25 |
| C[C@]12CCC(=O)N[C@@H]1CC[C@@H]1[C@@H]2CC[C@]2(C)[C@@H](C(=O)c3ccco3)CC[C@@H]12 | 3.6 | 7.44 |
| CC(O)[C@H]1CC[C@H]2[C@@H]3CC[C@H]4N(C)C(=O)CC[C@]4(C)[C@H]3CC[C@]12C (stereo not given in full) | 17 | 6.77 |

— ChEMBL document CHEMBL3046716, “Design of potent human steroid 5-reductase inhibitors: 3D-QSAR CoMFA, CoMSIA and docking studies” (Med Chem Res, 2013)
